Results from patent publication US12583893B2, “Use of esculentin and its derivatives for use in the treatment of cystic fibrosis” (UNIVERSITÀ DEGLI STUDI DI ROMA LA SAPIENZA, priority 2019, dated 2026).
“Also recorded” adds a separate entry of the source. Square brackets hold non-standard residues; d marks the D form. Ends that are not written are not given here. d(pS) = N[C@H](COP(=O)(O)O)C(=O)O

Columns and labels:
F508del CFTR [1] = target: T1, F508del CFTR (Homo sapiens, UniProt P13569, DEL508-508); experiment: Ussing chamber short-circuit current on bronchial epithelia from homozygous F508del patient; assay type: cell-based; set-up: Ussing chamber experiments on bronchial epithelia from homozygous F508del patient; host or cells: primary human bronchial epithelial cells from a CF patient homozygous for F508del; settings: epithelia incubated 24 h with 1 μM Vx-809, then amiloride, cpt-cAMP and potentiator
T1 sequence (P13569 with tags, fused parts or gaps DEL508-508): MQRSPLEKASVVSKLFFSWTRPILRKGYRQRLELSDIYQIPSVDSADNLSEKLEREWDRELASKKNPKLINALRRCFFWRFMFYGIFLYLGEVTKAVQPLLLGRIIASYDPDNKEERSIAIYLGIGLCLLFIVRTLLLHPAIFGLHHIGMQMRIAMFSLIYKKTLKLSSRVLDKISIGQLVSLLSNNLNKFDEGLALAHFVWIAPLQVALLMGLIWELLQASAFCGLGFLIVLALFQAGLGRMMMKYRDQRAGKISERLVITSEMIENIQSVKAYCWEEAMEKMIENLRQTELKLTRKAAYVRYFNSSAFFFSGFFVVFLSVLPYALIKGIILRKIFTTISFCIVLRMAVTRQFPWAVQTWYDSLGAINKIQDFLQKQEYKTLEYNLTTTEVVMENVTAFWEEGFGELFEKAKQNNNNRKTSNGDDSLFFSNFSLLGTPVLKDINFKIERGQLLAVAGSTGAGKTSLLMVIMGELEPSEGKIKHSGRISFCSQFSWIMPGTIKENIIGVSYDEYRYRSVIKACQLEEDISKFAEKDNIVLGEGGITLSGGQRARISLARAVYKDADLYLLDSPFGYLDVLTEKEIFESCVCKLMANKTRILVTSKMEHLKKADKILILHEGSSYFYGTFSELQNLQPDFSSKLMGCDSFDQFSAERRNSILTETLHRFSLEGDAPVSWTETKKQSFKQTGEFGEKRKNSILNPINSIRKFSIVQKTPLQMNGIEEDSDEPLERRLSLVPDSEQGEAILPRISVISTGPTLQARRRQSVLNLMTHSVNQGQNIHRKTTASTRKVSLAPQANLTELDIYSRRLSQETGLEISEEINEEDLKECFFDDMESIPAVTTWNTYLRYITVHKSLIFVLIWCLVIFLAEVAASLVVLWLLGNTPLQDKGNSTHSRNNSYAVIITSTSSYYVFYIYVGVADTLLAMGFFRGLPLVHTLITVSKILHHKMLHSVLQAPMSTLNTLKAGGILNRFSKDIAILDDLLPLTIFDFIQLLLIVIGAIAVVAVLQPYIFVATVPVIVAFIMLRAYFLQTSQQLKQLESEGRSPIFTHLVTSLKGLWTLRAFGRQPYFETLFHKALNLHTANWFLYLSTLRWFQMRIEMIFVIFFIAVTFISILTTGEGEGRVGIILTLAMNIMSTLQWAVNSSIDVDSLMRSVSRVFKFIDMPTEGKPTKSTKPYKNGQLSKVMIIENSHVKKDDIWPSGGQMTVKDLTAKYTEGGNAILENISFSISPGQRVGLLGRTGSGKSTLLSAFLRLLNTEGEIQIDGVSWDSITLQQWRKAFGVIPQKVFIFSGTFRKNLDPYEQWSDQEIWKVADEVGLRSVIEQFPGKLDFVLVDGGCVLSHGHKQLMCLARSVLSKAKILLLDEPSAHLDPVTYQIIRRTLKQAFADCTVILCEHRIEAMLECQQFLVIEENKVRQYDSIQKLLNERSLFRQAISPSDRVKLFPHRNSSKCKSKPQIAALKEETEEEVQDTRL
Method: Snapwell inserts (Corning 3801) carrying differentiated bronchial epithelia were mounted in a vertical diffusion chamber, resembling a Ussing chamber with internal fluid circulation. Both apical and basolateral chambers were filled with 5 ml of saline solution. The short-circuit current was recorded with a PowerLab 4/25 (ADInstruments) analog-to-digital converter connected to a computer. Epithelia were incubated for 24 h with 1 μM Vx-809 or 0.1% DMSO. Afterwards, 10 μM amiloride was added; subsequently, CFTR channels were activated by phosphorylation upon addition of 100 μM cpt-cAMP (permeable cAMP analog). Then, 1 μM of the potentiator Vx-770 as well as each Esc peptide was added on the epithelium apical side, as indicated. Finally, 10 μM Inh172, a specific inhibitor of CFTR was added to the epithelium apical side. Measurements were done after 5 min from the addition of each substance. In parallel, epithelia pre-incubated for 24 h with each peptide and then treated with amiloride, cpt-cAMP and Vx-770 were used for comparison.
The CFTR potentiating activity of Esc peptides in primary airway epithelial cells was studied by Ussing chamber experiments on bronchial epithelia from homozygous F508del patient. Epithelia were treated for 24 h with 0.1% DMSO vehicle alone, 1 μM Vx809 or with each Esc peptide. […]

Pseudomonas aeruginosa = settings: cited from earlier work
F508del CFTR [2] = target: T1, F508del CFTR; experiment: CFTR-dependent trans-epithelial conductance by TEER in F508del-CFBE pre-incubated with Vx-809; assay type: cell-based; set-up: expressed in transfected cells; host or cells: CFBE41o- human bronchial epithelial cells, lentiviral transduction (F508del-CFBE); settings: for CFTR conductance: 10 μM peptide + 20 μM FSK without GEN, 10 min, pre-incubated 24 h with 1 μM Vx-809
Method: In parallel, to evaluate CFTR activation, the same saline solution was used. After measurement of basal TEER, 20 μM FSK+50 μM GEN as positive control, or FSK+ peptides at the desired concentration were added on the epithelium apical side. Finally, 30 μM PPQ102, a specific inhibitor of CFTR, was added on the epithelium apical side. After each addition, we waited ten minutes at 37° C. before measurement. From the values of TEER measured before and after CFTR inhibition, we calculated the CFTR-dependent trans-epithelial conductance for each condition [Sondo E, Falchi F, Caci E, Ferrera L, Giacomini E, Pesce E, Tomati V, Mandrup Bertozzi S, Goldoni L, Armirotti A, Ravazzolo R, Cavalli A, Pedemonte N (2018) Pharmacological Inhibition of the Ubiquitin Ligase RNF5 Rescues F508del-CFTR in Cystic Fibrosis Airway Epithelia. Cell Chem Biol 25, 891-905 e898].
Subsequently, was investigated the ability of Esc peptides to act as potentiators of mutated CFTR, by promoting its phosphorylation state or its channel opening time, mimicking the activity of forskolin (FSK) or genistein (GEN), respectively, which are both needed for full activation of CFTR [Sondo E, Falchi F, Caci E, Ferrera L, Giacomini E, Pesce E, Tomati V, Mandrup Bertozzi S, Goldoni L, Armirotti A, Ravazzolo R, Cavalli A, Pedemonte N (2018) Pharmacological Inhibition of the Ubiquitin Ligase RNF5 Rescues F508del-CFTR in Cystic Fibrosis Airway Epithelia. Cell Chem Biol 25, 891-905 e898]. Noteworthy, the adenylate cyclase activator FSK [Ma T, Thiagarajah J R, Yang H, Sonawane N D, Folli C, Galietta L J, Verkman A S (2002) Thiazolidinone CFTR inhibitor identified by high-throughput screening blocks cholera toxin-induced intestinal fluid secretion. J Clin Invest 110, 1651-1658] is reported to trigger an increase of intracellular cAMP favouring CFTR phosphorylation by cellular protein kinases e.g. PKA, while the isoflavone GEN accelerates channel opening, by promoting NBD dimerization, and slows channel closure by stabilizing the NBD1:NBD2 dimer conformation [Schmidt A, Hughes L K, Cai Z, Mendes F, Li H, Sheppard D N, Amaral M D (2008) Prolonged treatment of cells with genistein modulates the expression and function of the cystic fibrosis transmembrane conductance regulator. Br J Pharmacol 153, 1311-1323]. The CFTR-mediated conductance of bronchial epithelium was evaluated by TEER, after 10 min, 1 h and 2 h treatment of F508del-CFBE (pre-incubated with the corrector Vx-809 in order to trigger the mutated protein to the apical membrane) with Esc(1-21)-1c (10 μM), in the absence of FSK or GEN. […] This clearly denoted that the peptide was able to potentiate CFTR activity, likely by prolonging its channel opening time.
The conductance was then measured on F508del-CFBE. […]

Pseudomonas = settings: single intra-tracheal instillation, cited from earlier work
F508del-CFBE = settings: compared with Esc(1-21); cited from earlier work
P. aeruginosa biofilm = settings: compared with Esc(1-21); cited from earlier work
wt-CFBE = settings: compared with Esc(1-21); cited from earlier work
F508del CFTR [3] = target: T1, F508del CFTR; experiment: Trans-epithelial electrical conductance in del508-FRT cells, position-17 analogs; assay type: cell-based; set-up: expressed in transfected cells; settings: 10 min treatment with 10 μM peptide tested as potentiator (instead of genistein)
Excerpt: To understand whether the potentiator effect of Esc peptides was specifically dependent on their sequence and/or correlated to the presence of Ser17, eventually upon its phosphorylation by PKA, a series of peptide analogs bearing different L/D amino acids at position 17 were synthesized, the analogs are presented in the following table 1. The analogs were used to measure the trans-epithelial electrical conductance in […] Rat Thyroid cells, which is a cell line frequently used for functional studies and stably expressing F508del-CFTR (del508-FRT). Among them, compounds 3 and 5 carrying L and D-Alanine, respectively; compound 6 carrying the achiral Glycine17; compounds 7 and 8, with another potential target amino acid of protein kinases i.e. D and L-threonine respectively; and compounds 9 ad 10 where Ser17 was replaced by a residue with a bulky side chain, i.e. D and L tryptophan, respectively. Furthermore, an analog with L-phosphoserine at position 17 were included for comparison.

With `CC(C)(C)c1cc(C(C)(C)C)c(NC(=O)c2c[nH]c3ccccc3c2=O)cc1O` [Vx-770] the “CFTR-mediated current as potentiator” value (F508del CFTR [1]) was “significant current increase”.

In the case of “GIFSKLAGKKIKNLLISGLKG-NH2 [Esc(1-21), first 20 amino acids of Esculentin 1a with a glycinamide residue at the C-terminus]”, the antipseudomonal activity (Pseudomonas aeruginosa) is given as “potent antipseudomonal activity”.

In the case of “Gly-Ile-Phe-Ser-Lys-Leu-Ala-Gly-Lys-Lys-Ile-Lys-Asn-dLeu-Leu-Ile-dSer-Gly-Leu-Lys-Gly-NH2 (GIFSKLAGKKIKN[dL]LI[dS]GLKG-NH2) [Esc(1-21)-1c, diastereomer of Esc(1-21) with two D-amino acids]”, the CFTR conductance (F508del CFTR [2]) is reported as “significant increase of CFTR conductance”, the “potentiator activity (CFTR conductance) over time” value (F508del CFTR [2]; 10 μM peptide + FSK without GEN, 1 h or 2 h treatment, pre-incubated with Vx-809) is reported as “remain constant up to 2 h” and the “CFTR-mediated conductance (rescue of CFTR activity)” value (F508del CFTR [2]; 10 μM peptide in the absence of FSK, pre-incubated with Vx-809) is reported as “no rescue of CFTR activity”. The “reduction of lung bacterial burden” value (Pseudomonas; 0.1 mg/kg corresponding to 20 μM, compared with Esc(1-21)) was “more potent in reducing lung bacterial burden”, the “toxicity or inflammatory side events” value (Pseudomonas; 0.1 mg/kg) was “negligible toxicity or inflammatory side events” and the “re-epithelialization of bronchial epithelial cells” value (F508del-CFBE) was “more efficient to induce re-epithelialization”. For the same compound, the “activity against P. aeruginosa biofilm” value (P. aeruginosa biofilm) was “more active against P. aeruginosa biofilm” and the “re-epithelialization of bronchial epithelial cells” value (wt-CFBE) was “more efficient to induce re-epithelialization”.

With “Gly-Ile-Phe-Ser-Lys-Leu-Ala-Gly-Lys-Lys-Ile-Lys-Asn-dLeu-Leu-Ile-dphosphoSer-Gly-Leu-Lys-Gly-NH2 (GIFSKLAGKKIKN[dL]LI[d(pS)]GLKG-NH2; N-terminus assumed; SMILES CC[C@H](C)[C@H](NC(=O)CN)C(=O)N[C@@H](Cc1ccccc1)C(=O)N[C@@H](CO)C(=O)N[C@@H](CCCCN)C(=O)N[C@@H](CC(C)C)C(=O)N[C@@H](C)C(=O)NCC(=O)N[C@@H](CCCCN)C(=O)N[C@@H](CCCCN)C(=O)N[C@H](C(=O)N[C@@H](CCCCN)C(=O)N[C@@H](CC(N)=O)C(=O)N[C@H](CC(C)C)C(=O)N[C@@H](CC(C)C)C(=O)N[C@H](C(=O)N[C@H](COP(=O)(O)O)C(=O)NCC(=O)N[C@@H](CC(C)C)C(=O)N[C@@H](CCCCN)C(=O)NCC(N)=O)[C@@H](C)CC)[C@@H](C)CC) [compound 2, carrying D-phosphoSer at position 17]” the “transepithelial conductance (function of F508del-CFTR)” value (F508del CFTR [3]) was “significantly increase; also recorded: higher than that of genistein”.

With temporin A [reference compound] the CFTR conductance (F508del CFTR [2]) was “no effect on CFTR currents”.
